In ChEMBL document CHEMBL4364276, “Discovery of 4-phenyl-2H-benzo[b][1,4]oxazin-3(4H)-one derivatives as potent and orally active PI3K/mTOR dual inhibitors” (Eur J Med Chem, 2019):

Legend:
[1] = target: Glycogen synthase kinase-3 alpha (Homo sapiens) (UniProt P49840); experiment: Inhibition of human GSK3A at 100 nM using YRRAAVPPSPSLSRHSSPHQ(pS)EDEEE as substrate by [gamma-33P]-ATP assay
[2] = target: Serine/threonine-protein kinase MAK (Homo sapiens) (UniProt P20794); experiment: Inhibition of human MAK at 100 nM using MBP as substrate by [gamma-33P]-ATP assay
[3] = target: Serine/threonine-protein kinase OSR1 (Homo sapiens) (UniProt O95747); experiment: Inhibition of human OSR1 at 100 nM using RRHYYYDTHTNTYYLRTFGHNTRR as substrate by [gamma-33P]-ATP assay
[4] = Tmax in Sprague-Dawley rat at 10 mg/kg, po measured upto 24 hrs by LC-MS/MS analysis; format: ADME, organism-based; settings: in vivo
[5] = target: Tyrosine-protein kinase FRK (Homo sapiens) (UniProt P42685); experiment: Inhibition of human FRK at 100 nM using poly[Glu:Tyr] (4:1) as substrate by [gamma-33P]-ATP assay
[6] = target: SRSF protein kinase 1 (Homo sapiens) (UniProt Q96SB4); experiment: Inhibition of human SRPK1 at 100 nM using GRSRSRSRSR as substrate by [gamma-33P]-ATP assay
[7] = AUC (0 to infinity) in Sprague-Dawley rat at 10 mg/kg, po measured upto 24 hrs by LC-MS/MS analysis; format: ADME, organism-based; parameters: dose 10 mg/kg, time infinity, route oral; settings: in vivo
[8] = target: Vascular endothelial growth factor receptor 1 (Homo sapiens) (UniProt P17948); experiment: Inhibition of human FLT1 at 100 nM using poly[Glu:Tyr] (4:1) as substrate by [gamma-33P]-ATP assay
[9] = target: Insulin-like growth factor 1 receptor (Homo sapiens) (UniProt P08069); experiment: Inhibition of human IGF1R at 100 nM using KKKSPGEYVNIEFG as substrate by [gamma-33P]-ATP assay
[10] = target: Casein kinase I isoform alpha (Homo sapiens) (UniProt P48729); experiment: Inhibition of human CK1a1 at 100 nM using KRRRAL[pS]VASLPGL as substrate by [gamma-33P]-ATP assay
[11] = Inhibition of PI3K/Akt/mTOR signaling in human HeLa cells assessed as reduction in AKT 473 phosphorylation incubated for 24 hrs by Western blot analysis; format: cell-based
[12] = target: Serine/threonine-protein kinase Nek1 (Homo sapiens) (UniProt Q96PY6); experiment: Inhibition of human NEK1 at 100 nM using MBP as substrate by [gamma-33P]-ATP assay
[13] = target: Cyclin-dependent kinase 4/cyclin D1 (Homo sapiens) (UniProt P11802+P24385); experiment: Inhibition of human CDK4/cyclin-D1 at 100 nM using RB protein as substrate by [gamma-33P]-ATP assay; format: protein-complex assay
[14] = test system: HeLa; experiment: Inhibition of colony formation in human HeLa cells incubated for 2 weeks crystal violet staining based assay; format: functional, cell-based
[15] = target: Receptor-type tyrosine-protein kinase FLT3 (Homo sapiens) (UniProt P36888); experiment: Inhibition of human FLT3 at 100 nM using EAIYAAPFAKKK as substrate by [gamma-33P]-ATP assay
[16] = target: Serine/threonine-protein kinase WNK2 (Homo sapiens) (UniProt Q9Y3S1); experiment: Inhibition of human WNK2 at 100 nM using MBP as substrate by [gamma-33P]-ATP assay
[17] = target: Dual specificity protein kinase CLK4 (Homo sapiens) (UniProt Q9HAZ1); experiment: Inhibition of human CLK4 at 100 nM using MBP as substrate by [gamma-33P]-ATP assay
[18] = target: SNF-related serine/threonine-protein kinase (Homo sapiens) (UniProt Q9NRH2); experiment: Inhibition of human SNRK at 100 nM using MBP as substrate by [gamma-33P]-ATP assay
[19] = target: Ephrin type-B receptor 3 (Homo sapiens) (UniProt P54753); experiment: Inhibition of human EPHB3 at 100 nM using poly[Glu:Tyr] (4:1) as substrate by [gamma-33P]-ATP assay
[20] = target: Ephrin type-A receptor 4 (Homo sapiens) (UniProt P54764); experiment: Inhibition of human EPHA4 at 100 nM using poly[Glu:Tyr] (4:1) as substrate by [gamma-33P]-ATP assay
[21] = Half life in Sprague-Dawley rat at 10 mg/kg, po measured upto 24 hrs by LC-MS/MS analysis; format: ADME, organism-based; settings: in vivo
[22] = target: Calcium/calmodulin-dependent protein kinase type 1 (Homo sapiens) (UniProt Q14012); experiment: Inhibition of human CAMK1A at 100 nM using KKALRRQETVDAL as substrate by [gamma-33P]-ATP assay
[23] = test system: HeLa; experiment: Inhibition of colony formation in human HeLa cells at > 5 uM incubated for 2 weeks crystal violet staining based assay; format: functional
[24] = target: Serine/threonine-protein kinase PAK 4 (Homo sapiens) (UniProt O96013); experiment: Inhibition of human PAK4 at 100 nM using RRRLSFAEPG as substrate by [gamma-33P]-ATP assay
[25] = target: CDK2/Cyclin A2 (Homo sapiens) (UniProt P24941+P20248); experiment: Inhibition of human CDK2/cyclin-A at 100 nM using histone H1 as substrate by [gamma-33P]-ATP assay; format: protein-complex assay
[26] = target: Cyclin-C/Cyclin-dependent kinase 19 (Homo sapiens) (UniProt Q9BWU1+P24863); experiment: Inhibition of human CDK19/cyclin-C at 100 nM using RB protein as substrate by [gamma-33P]-ATP assay; format: protein-complex assay
[27] = target: Serine/threonine-protein kinase PAK 2 (Homo sapiens) (UniProt Q13177); experiment: Inhibition of human PAK2 at 100 nM using RRRLSFAEPG as substrate by [gamma-33P]-ATP assay
[28] = target: CDC7/DBF4 (Cell division cycle 7-related protein kinase/Activator of S phase kinase) (Homo sapiens) (UniProt Q9UBU7+O00311); experiment: Inhibition of human CDC7/DBF4 at 100 nM using KTFCGTPEYLAPEVRREPRILSEEEQEMFRDFDYIADWC as substrate by [gamma-33P]-ATP assay; format: protein-complex assay
[29] = target: RAF proto-oncogene serine/threonine-protein kinase (Homo sapiens) (UniProt P04049); experiment: Inhibition of human RAF1 at 100 nM using MEK1 as substrate by [gamma-33P]-ATP assay
[30] = target: Non-receptor tyrosine-protein kinase TYK2 (Homo sapiens) (UniProt P29597); experiment: Inhibition of human TYK2 at 100 nM using KKSRGDYMTMQIG as substrate by [gamma-33P]-ATP assay
[31] = target: Insulin receptor-related protein (Homo sapiens) (UniProt P14616); experiment: Inhibition of human IRR at 100 nM using MBP as substrate by [gamma-33P]-ATP assay
[32] = target: Mitogen-activated protein kinase kinase kinase 10 (Homo sapiens) (UniProt Q02779); experiment: Inhibition of human MLK2 at 100 nM using MBP as substrate by [gamma-33P]-ATP assay

Chain of Insulin receptor-related protein (Homo sapiens) (P14616 27-742 limits assumed): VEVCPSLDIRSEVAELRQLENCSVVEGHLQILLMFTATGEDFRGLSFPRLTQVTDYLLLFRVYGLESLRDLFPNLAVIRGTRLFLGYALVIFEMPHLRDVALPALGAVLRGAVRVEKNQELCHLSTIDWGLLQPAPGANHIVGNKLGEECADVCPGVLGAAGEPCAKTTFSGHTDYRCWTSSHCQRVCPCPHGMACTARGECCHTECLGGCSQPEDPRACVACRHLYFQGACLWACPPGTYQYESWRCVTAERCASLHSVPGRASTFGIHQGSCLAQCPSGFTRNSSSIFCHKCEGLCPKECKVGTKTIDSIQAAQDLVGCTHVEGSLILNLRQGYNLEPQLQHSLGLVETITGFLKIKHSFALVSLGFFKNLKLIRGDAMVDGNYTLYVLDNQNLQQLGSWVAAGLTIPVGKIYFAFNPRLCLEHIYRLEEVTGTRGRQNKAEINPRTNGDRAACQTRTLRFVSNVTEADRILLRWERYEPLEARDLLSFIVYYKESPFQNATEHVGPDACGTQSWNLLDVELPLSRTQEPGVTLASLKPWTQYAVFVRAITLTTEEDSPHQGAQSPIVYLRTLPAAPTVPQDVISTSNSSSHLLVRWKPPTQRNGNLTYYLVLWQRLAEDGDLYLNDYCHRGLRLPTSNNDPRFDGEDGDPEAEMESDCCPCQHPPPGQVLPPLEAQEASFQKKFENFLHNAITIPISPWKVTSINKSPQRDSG
Chain of Insulin receptor-related protein (Homo sapiens) (P14616 747-1297 limits assumed): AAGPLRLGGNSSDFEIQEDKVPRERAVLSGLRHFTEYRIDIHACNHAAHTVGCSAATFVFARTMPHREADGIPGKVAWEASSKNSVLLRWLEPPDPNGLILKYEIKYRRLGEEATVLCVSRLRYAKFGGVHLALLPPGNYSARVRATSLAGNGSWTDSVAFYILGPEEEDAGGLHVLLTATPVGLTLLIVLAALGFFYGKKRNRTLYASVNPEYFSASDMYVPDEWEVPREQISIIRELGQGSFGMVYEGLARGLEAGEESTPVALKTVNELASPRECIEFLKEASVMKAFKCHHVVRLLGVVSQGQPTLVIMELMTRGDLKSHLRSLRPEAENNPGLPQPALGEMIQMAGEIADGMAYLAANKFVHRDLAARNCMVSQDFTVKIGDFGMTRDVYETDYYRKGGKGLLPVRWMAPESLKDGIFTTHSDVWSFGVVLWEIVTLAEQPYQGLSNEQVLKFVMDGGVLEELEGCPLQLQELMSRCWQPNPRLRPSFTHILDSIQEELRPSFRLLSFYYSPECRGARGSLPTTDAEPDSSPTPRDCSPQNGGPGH
Chain of Ephrin type-A receptor 4 (Homo sapiens) (P54764 whole entry): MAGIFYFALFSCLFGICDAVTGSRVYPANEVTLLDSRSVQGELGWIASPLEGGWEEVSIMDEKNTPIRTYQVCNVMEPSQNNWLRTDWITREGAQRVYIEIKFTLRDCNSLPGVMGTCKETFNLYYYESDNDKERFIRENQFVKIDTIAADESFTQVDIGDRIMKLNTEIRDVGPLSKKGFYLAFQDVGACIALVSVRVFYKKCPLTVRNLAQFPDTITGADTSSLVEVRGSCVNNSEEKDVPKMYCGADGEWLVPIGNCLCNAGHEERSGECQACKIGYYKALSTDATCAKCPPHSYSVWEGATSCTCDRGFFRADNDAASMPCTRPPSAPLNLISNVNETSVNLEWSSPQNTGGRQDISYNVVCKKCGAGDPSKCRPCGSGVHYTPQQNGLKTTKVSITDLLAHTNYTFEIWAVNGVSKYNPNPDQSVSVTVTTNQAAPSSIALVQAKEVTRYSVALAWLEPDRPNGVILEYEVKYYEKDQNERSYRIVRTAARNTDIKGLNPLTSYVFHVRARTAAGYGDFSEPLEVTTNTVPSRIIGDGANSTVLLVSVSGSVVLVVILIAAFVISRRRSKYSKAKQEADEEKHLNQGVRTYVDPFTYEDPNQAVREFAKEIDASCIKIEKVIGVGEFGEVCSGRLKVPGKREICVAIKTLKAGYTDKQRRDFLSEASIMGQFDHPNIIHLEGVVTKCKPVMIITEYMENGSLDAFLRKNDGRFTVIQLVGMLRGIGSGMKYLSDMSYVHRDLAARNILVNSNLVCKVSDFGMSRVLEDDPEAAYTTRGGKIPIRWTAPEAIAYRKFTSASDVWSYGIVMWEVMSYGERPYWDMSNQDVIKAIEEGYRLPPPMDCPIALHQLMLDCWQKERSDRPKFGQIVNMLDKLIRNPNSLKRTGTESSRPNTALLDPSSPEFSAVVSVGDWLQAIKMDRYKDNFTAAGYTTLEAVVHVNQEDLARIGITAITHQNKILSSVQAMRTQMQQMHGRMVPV
Chain of RAF proto-oncogene serine/threonine-protein kinase (Homo sapiens) (P04049 whole entry): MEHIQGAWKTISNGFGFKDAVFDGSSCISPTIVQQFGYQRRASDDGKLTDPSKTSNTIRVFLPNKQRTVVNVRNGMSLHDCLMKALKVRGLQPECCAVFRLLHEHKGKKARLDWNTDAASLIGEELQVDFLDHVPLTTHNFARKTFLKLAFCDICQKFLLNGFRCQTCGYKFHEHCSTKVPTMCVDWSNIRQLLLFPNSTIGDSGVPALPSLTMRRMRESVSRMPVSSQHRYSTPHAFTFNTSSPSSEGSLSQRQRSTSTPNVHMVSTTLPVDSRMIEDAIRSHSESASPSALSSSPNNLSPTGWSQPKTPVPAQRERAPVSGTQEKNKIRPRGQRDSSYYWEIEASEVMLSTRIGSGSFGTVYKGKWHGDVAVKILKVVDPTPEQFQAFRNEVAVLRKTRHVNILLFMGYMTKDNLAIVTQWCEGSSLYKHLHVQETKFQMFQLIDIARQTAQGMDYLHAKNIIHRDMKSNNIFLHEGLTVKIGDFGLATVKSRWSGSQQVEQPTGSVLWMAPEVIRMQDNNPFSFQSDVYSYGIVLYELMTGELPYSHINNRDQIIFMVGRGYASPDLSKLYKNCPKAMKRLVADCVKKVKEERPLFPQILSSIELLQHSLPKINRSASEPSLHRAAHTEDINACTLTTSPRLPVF
Chain of CDC7/DBF4 (Cell division cycle 7-related protein kinase/Activator of S phase kinase) (Homo sapiens) (O00311 whole entry, looked up): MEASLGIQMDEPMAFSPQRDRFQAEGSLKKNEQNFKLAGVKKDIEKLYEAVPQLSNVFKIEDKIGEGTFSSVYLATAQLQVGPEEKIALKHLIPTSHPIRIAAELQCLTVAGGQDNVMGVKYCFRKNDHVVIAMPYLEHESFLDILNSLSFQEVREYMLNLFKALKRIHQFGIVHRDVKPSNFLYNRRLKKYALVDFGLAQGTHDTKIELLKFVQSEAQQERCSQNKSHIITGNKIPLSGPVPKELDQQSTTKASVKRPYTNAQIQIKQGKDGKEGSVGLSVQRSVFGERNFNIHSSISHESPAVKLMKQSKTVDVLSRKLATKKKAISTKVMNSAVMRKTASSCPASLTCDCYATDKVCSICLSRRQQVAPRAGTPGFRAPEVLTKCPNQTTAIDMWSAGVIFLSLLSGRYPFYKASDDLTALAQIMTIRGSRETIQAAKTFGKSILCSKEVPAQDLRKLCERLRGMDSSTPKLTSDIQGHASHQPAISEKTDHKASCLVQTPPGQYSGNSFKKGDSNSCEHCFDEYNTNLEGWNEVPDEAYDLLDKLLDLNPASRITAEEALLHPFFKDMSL
Chain of CDC7/DBF4 (Cell division cycle 7-related protein kinase/Activator of S phase kinase) (Homo sapiens) (Q9UBU7 whole entry, looked up): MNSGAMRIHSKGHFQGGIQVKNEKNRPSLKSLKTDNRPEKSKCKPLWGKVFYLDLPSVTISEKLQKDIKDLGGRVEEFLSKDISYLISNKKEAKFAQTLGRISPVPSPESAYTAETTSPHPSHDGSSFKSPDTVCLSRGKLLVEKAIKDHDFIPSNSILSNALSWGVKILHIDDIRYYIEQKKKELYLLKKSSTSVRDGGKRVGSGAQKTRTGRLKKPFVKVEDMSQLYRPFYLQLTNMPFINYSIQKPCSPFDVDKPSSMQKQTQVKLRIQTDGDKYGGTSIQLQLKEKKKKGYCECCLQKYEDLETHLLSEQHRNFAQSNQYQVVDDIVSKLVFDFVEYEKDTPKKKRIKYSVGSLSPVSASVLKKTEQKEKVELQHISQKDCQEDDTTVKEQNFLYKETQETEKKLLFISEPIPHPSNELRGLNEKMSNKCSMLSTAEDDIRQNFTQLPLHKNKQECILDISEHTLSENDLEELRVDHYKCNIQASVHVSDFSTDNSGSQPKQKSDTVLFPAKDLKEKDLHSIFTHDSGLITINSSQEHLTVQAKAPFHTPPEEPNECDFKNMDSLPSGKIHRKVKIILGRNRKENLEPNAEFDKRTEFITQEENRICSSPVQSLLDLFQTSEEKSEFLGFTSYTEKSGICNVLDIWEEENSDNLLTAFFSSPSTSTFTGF
Chain of SNF-related serine/threonine-protein kinase (Homo sapiens) (Q9NRH2 whole entry): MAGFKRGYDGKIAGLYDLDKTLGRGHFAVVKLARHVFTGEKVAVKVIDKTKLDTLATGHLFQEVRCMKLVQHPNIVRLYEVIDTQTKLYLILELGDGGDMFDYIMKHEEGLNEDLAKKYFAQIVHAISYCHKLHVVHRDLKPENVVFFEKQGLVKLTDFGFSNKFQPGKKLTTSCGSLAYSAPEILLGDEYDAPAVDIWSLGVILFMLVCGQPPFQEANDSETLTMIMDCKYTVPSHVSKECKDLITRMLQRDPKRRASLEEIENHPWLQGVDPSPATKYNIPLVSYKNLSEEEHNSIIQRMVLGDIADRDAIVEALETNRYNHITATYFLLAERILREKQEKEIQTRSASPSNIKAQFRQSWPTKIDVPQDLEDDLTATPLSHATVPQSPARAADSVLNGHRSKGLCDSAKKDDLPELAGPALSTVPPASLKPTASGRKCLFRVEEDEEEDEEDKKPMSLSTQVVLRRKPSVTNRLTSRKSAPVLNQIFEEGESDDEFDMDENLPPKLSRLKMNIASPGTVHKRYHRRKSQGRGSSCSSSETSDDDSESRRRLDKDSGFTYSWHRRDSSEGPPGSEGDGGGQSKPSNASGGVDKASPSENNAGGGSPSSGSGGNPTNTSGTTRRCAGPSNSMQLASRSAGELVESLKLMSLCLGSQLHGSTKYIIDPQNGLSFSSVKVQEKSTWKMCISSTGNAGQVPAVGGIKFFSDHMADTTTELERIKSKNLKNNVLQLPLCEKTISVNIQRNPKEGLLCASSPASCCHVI

SMILES: COc1ccc(N2C(=O)COc3ccc(-c4cnc(OC)c(NS(=O)(=O)c5ccc(F)cc5)c4)cc32)cc1
- inhibition [1]: -8.76%
- inhibition [2]: 16.2%
- inhibition [3]: 4.85%
- Tmax [4]: 2.67 h
- inhibition [5]: 8.7%
- inhibition [6]: 1.44%
- AUC(0-inf) [7]: 4750 ng·h/mL
- inhibition [8]: 3.08%
- inhibition [9]: -4.3%
- inhibition [10]: 16.6%
- inhibition [11]: Dose-dependent effect
- inhibition [12]: 19%
- inhibition [13]: 0.16%
- inhibition [14]: Dose-dependent effect
- inhibition [15]: 16.6%
- inhibition [16]: 2.82%
- inhibition [17]: 6.64%
- inhibition [18]: 17.7%
- inhibition [19]: -1.65%
- inhibition [20]: 6.1%
- half-life [21]: 1.78 h
- inhibition [22]: 1.42%
- inhibition (INH) [23]: <=100%
- inhibition [24]: 7.74%
- inhibition [25]: 2.43%
- inhibition [26]: 4.5%
- inhibition [27]: 10.4%
- inhibition [28]: 8.12%
- inhibition [29]: -0.03%
- inhibition [30]: 11.3%
- inhibition [31]: 14.4%
- inhibition [32]: -1.63%
